Reference: patent US8957063B2, “Amine and ether compounds which modulate the CB2 receptor” (priority 2008, dated 2015)

Target: T1, human CB2R (Homo sapiens, UniProt P34972)
T1 construct: host or cells: CHO cells
Test: CB2R mediated modulation of cAMP synthesis
Assay type: cell-based
Conditions: not given
Experimental: B. CB2R Mediated Modulation of cAMP Synthesis:
Compounds of the invention were evaluated for their CB2 agonist or inverse agonistic activity in accordance with the following experimental method.
CHO cells expressing human CB2R (Euroscreen) were plated at a density of 5000 cells per well in 384 well plates and incubated overnight at 37° C. After removing the media, the cells were treated with test compounds diluted in stimulation buffer containing 1 mM IBMX, 0.25% BSA and 10 uM Forskolin. The assay was incubated for 30 minutes at 37° C. Cells were lysed and the cAMP concentration was measured using DiscoverX-XS cAMP kit, following the manufacturer's protocol. In this setting, agonists will decrease forskolin induced production of cAMP while inverse agonists will further increase forskolin induced production of cAMP. EC50 of agonists were calculated as follows. The maximal amount of cAMP produced by forskolin compared to the level of cAMP inhibited by 1 uM CP55940 is defined as 100%. The EC50 value of each test compound was determined as the concentration at which 50% of the forskolin-stimulated cAMP synthesis was inhibited. Data was analyzed using a four-parameter logistic model. (Model 205 of XLfit 4.0).

T1 sequence (P34972 whole entry): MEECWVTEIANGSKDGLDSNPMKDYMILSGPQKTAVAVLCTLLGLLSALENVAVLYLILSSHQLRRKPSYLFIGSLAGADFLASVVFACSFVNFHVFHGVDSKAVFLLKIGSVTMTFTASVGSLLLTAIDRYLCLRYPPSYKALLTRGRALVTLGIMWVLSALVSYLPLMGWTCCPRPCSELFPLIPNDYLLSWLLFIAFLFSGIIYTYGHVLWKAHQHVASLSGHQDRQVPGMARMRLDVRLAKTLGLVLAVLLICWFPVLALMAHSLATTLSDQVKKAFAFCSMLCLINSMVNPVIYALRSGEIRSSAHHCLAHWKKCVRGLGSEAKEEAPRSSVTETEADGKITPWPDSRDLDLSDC

First: CC(C)(Oc1ccc(Cl)cc1)C(=O)Nc1cc(C(C)(C)C)on1 [Example 1, N-(5-tert-Butyl-isoxazol-3-yl)-2-(4-chloro-phenoxy)-2-methyl-propionamide]
Second: COc1ccc(NC(C)(C)C(=O)Nc2cc(C(C)(C)C)on2)cc1 [Example 9, N-(5-tert-Butyl-isoxazol-3-yl)-2-(4-methoxy-phenylamino)-2-methyl-propionamide]
The EC50 of the first is 3.6-fold lower: 0.0024 µM for the first, 0.0087 µM for the second. The first is the more potent here.

Going from `CC(C)(OCC1CCOCC1)C(=O)Nc1cc(C(C)(C)C)no1` [Example 2, N-(3-tert-Butyl-isoxazol-5-yl)-2-methyl-2-(tetrahydro-pyran-4-ylmethoxy)-propionamide] to `CC(C)(NCC1CCOCC1)C(=O)Nc1cc(C(C)(C)C)no1` [Example 37], the EC50 rises from 0.0081 µM to 0.014 µM (1.7-fold).

Going from `CC(C)(OCC1CCOCC1)C(=O)Nc1cc(C(C)(C)C)on1` [Example 3, N-(5-tert-Butyl-isoxazol-3-yl)-2-methyl-2-(tetrahydro-pyran-4-ylmethoxy)-propionamide] to `CC(C)(NCC1CCOCC1)C(=O)Nc1cc(C(C)(C)C)on1` [Example 38, N-(5-tert-Butyl-isoxazol-3-yl)-2-methyl-2-[(tetrahydro-pyran-4-ylmethyl)-amino]-propionamide], the EC50 rises from 0.05 µM to 0.125 µM (2.5-fold). The first is the more potent here.

`CC(C)(OC1CCOCC1)C(=O)Nc1cc(C(C)(C)C)no1` [Example 4, N-(3-tert-Butyl-isoxazol-5-yl)-2-methyl-2-(tetrahydro-pyran-4-yloxy)-propionamide] and `CC(C)(OC1CCOCC1)C(=O)Nc1cc(C(C)(C)C)on1` [Example 5, N-(5-tert-Butyl-isoxazol-3-yl)-2-methyl-2-(tetrahydro-pyran-4-yloxy)-propionamide] are within 1.5-fold of each other in EC50: 0.107 µM for the first, 0.123 µM for the second.

Compared with `CC(C)(OCC1CCOCC1)C(=O)Nc1nc(-c2ccccc2)n[nH]1` [Example 6, 2-Methyl-N-(5-phenyl-2H-1,2,4-triazol-3-yl)-2-(tetrahydro-pyran-4-ylmethoxy)-propionamide], `CC(C)(NCC1CCOCC1)C(=O)Nc1nc(-c2ccccc2)n[nH]1` [Example 41, 2-Methyl-N-(5-phenyl-2H-1,2,4-triazol-3-yl)-2-[(tetrahydro-pyran-4-ylmethyl)-amino]-propionamide] is 1.9-fold higher in EC50: 0.051 µM for the first, 0.098 µM for the second. The first is the more potent here.

`CC(C)(OC1CCOCC1)C(=O)Nc1nc(-c2ccccc2)n[nH]1` [Example 7, 2-Methyl-N-(5-phenyl-2H-1,2,4-triazol-3-yl)-2-(tetrahydro-pyran-4-yloxy)-propionamide] and `CC(C)(NC1CCOCC1)C(=O)Nc1nc(-c2ccccc2)n[nH]1` [Example 42, 2-Methyl-N-(5-phenyl-2H-1,2,4-triazol-3-yl)-2-(tetrahydro-pyran-4-ylamino)-propionamide] are within 1.5-fold of each other in EC50: 0.235 µM for the first, 0.26 µM for the second.

Compared with `CC(C)(Oc1ccc(C(F)(F)F)cn1)C(=O)Nc1cc(C(C)(C)C)no1` [Example 8, N-(3-tert-Butyl-isoxazol-5-yl)-2-methyl-2-(5-trifluoromethyl-pyridin-2-yloxy)-propionamide], `CC(C)(Nc1ccc(C(F)(F)F)cn1)C(=O)Nc1cc(C(C)(C)C)no1` [Example 46, N-(3-tert-Butyl-isoxazol-5-yl)-2-methyl-2-(5-trifluoromethyl-pyridin-2-ylamino)-propionamide] is 7.8-fold higher in EC50: 0.0001 µM for the first, 0.00078 µM for the second.

Going from `CC(C)NC(C)(C)C(=O)Nc1cc(C(C)(C)C)on1` [Example 10, N-(5-tert-Butyl-isoxazol-3-yl)-2-isopropylamino-2-methyl-propionamide] to `CCC(C)NC(C)(C)C(=O)Nc1cc(C(C)(C)C)on1` (centres unmarked) [Example 11, 2-sec-Butylamino-N-(5-tert-butyl-isoxazol-3-yl)-2-methyl-propionamide], the EC50 rises from 0.1 µM to 0.177 µM (1.8-fold). The first is the more potent here.

First: CC(C)N(C)C(C)(C)C(=O)Nc1cc(C(C)(C)C)on1 [Example 12, N-(5-tert-Butyl-isoxazol-3-yl)-2-(isopropyl-methyl-amino)-2-methyl-propionamide]
Second: CC(C)(NC1CC1)C(=O)Nc1cc(C(C)(C)C)on1 [Example 23, N-(5-tert-Butyl-isoxazol-3-yl)-2-cyclopropylamino-2-methyl-propionamide]
The EC50 of the first is 28-fold lower: 0.0084 µM for the first, 0.235 µM for the second.

First: CC(C)(C)c1cc(NC(=O)C(C)(C)N2CCOCC2)no1 [Example 13, N-(5-tert-Butyl-isoxazol-3-yl)-2-morpholin-4-yl-isobutyramide]
Second: CC(C)(C)c1cc(NC(=O)C(C)(C)N2CCCC2)no1 [Example 27, N-(5-tert-Butyl-isoxazol-3-yl)-2-pyrrolidin-1-yl-isobutyramide]
The EC50 of the first is 2-fold higher: 0.045 µM for the first, 0.023 µM for the second. The second is the more potent here.

Going from `CC(C)(NC1CCCCC1)C(=O)Nc1cc(C(C)(C)C)on1` [Example 14, N-(5-tert-Butyl-isoxazol-3-yl)-2-cyclohexylamino-2-methyl-propionamide] to `CC(C)(NC1CCOCC1)C(=O)Nc1cc(C(C)(C)C)on1` [Example 40, N-(5-tert-Butyl-isoxazol-3-yl)-2-methyl-2-(tetrahydro-pyran-4-ylamino)-propionamide], the EC50 rises from 0.0095 µM to 0.035 µM (3.7-fold). The first is the more potent here.

Compared with `CCCCNC(C)(C)C(=O)Nc1cc(C(C)(C)C)on1` [Example 17, 2-Butylamino-N-(5-tert-butyl-isoxazol-3-yl)-2-methyl-propionamide], `CC1CCCN1C(C)(C)C(=O)Nc1cc(C(C)(C)C)on1` (centres unmarked) [Example 20, N-(5-tert-Butyl-isoxazol-3-yl)-2-(2-methyl-pyrrolidin-1-yl)-isobutyramide] is 4-fold lower in EC50: 0.096 µM for the first, 0.024 µM for the second. The second is the more potent here.

First: CC1CCCN(C(C)(C)C(=O)Nc2cc(C(C)(C)C)on2)C1 (centres unmarked) [Example 19, N-(5-tert-Butyl-isoxazol-3-yl)-2-(3-methyl-piperidin-1-yl)-isobutyramide]
Second: CC1CCN(C(C)(C)C(=O)Nc2cc(C(C)(C)C)on2)CC1 [Example 21, N-(5-tert-Butyl-isoxazol-3-yl)-2-(4-methyl-piperidin-1-yl)-isobutyramide]
The EC50 of the first is 7.6-fold lower: 0.00034 µM for the first, 0.0026 µM for the second. The first is the more potent here.

First: CC(C)(C)c1cc(NC(=O)C(C)(C)N2CCSCC2)no1 [Example 22, N-(5-tert-Butyl-isoxazol-3-yl)-2-thiomorpholin-4-yl-isobutyramide]
Second: CC(C)(C)c1cc(NC(=O)C(C)(C)N2CCCCC2)no1 [Example 26, N-(5-tert-Butyl-isoxazol-3-yl)-2-piperidin-1-yl-isobutyramide]
The EC50 of the first is 18-fold higher: 0.0099 µM for the first, 0.00055 µM for the second. The second is the more potent here.

Going from `CC1CCCCN1C(C)(C)C(=O)Nc1cc(C(C)(C)C)on1` (centres unmarked) [Example 24, N-(5-tert-Butyl-isoxazol-3-yl)-2-(2-methyl-piperidin-1-yl)-isobutyramide] to `COC1CCN(C(C)(C)C(=O)Nc2cc(C(C)(C)C)on2)CC1` [Example 25, N-(5-tert-Butyl-isoxazol-3-yl)-2-(4-methoxy-piperidin-1-yl)-isobutyramide], the EC50 falls from 0.0012 µM to 0.00021 µM (5.7-fold). The second is the more potent here.

First: CC(C)(C)c1cc(NC(=O)C(C)(C)N2CCC(F)(F)CC2)no1 [Example 28, N-(5-tert-Butyl-isoxazol-3-yl)-2-(4,4-difluoro-piperidin-1-yl)-isobutyramide]
Second: CC(C)(C)c1cc(NC(=O)C(C)(C)N2CCC3(CCCCC3)C2)on1 [Example 36, 2-(2-Aza-spiro[4.5]dec-2-yl)-N-(3-tert-butyl-isoxazol-5-yl)-isobutyramide]
The EC50 of the first is 53-fold higher: 0.024 µM for the first, 0.00045 µM for the second.

First: CC(C)(C(=O)Nc1ccc(C(F)(F)F)cn1)N1CCCCC1 [Example 32, 2-Piperidin-1-yl-N-(5-trifluoromethyl-pyridin-2-yl)-isobutyramide]
Second: CC(C)(Nc1ccc(C(F)(F)F)cn1)C(=O)Nc1cc(C(C)(C)C)on1 [Example 47, N-(5-tert-Butyl-isoxazol-3-yl)-2-methyl-2-(5-trifluoromethyl-pyridin-2-ylamino)-propionamide]
The EC50 of the first is 6.3-fold higher: 0.127 µM for the first, 0.02 µM for the second. The second is the more potent here.

Going from `CC(C)(C)c1cc(NC(=O)C(C)(C)n2ccc3cc(Cl)ccc32)no1` [Example 35, N-(5-tert-Butyl-isoxazol-3-yl)-2-(5-chloro-indol-1-yl)-isobutyramide] to `CN(C(=O)c1ccc(Cl)cc1)C(C)(C)C(=O)Nc1cc(C(C)(C)C)on1` [Example 50, N-[1-(5-tert-Butyl-isoxazol-3-ylcarbamoyl)-1-methyl-ethyl]-4-chloro-N-methyl-benzamide], the EC50 rises from 0.00022 µM to 0.124 µM (560-fold).

First: CC(C)(NC1CCOCC1)C(=O)Nc1cc(C(C)(C)C)no1 [Example 39, N-(3-tert-Butyl-isoxazol-5-yl)-2-methyl-2-(tetrahydro-pyran-4-ylamino)-propionamide]
Second: CC(C)(Nc1ccc(C(F)(F)F)cc1)C(=O)Nc1cc(C(C)(C)C)no1 [Example 43, N-(3-tert-Butyl-isoxazol-5-yl)-2-methyl-2-(4-trifluoromethyl-phenylamino)-propionamide]
The EC50 of the first is 26-fold higher: 0.029 µM for the first, 0.0011 µM for the second.

Compared with `CN(C(C)(C)C(=O)Nc1cc(C(C)(C)C)on1)S(=O)(=O)c1ccc(Cl)cc1` [Example 48, N-(5-tert-Butyl-isoxazol-3-yl)-2-[(4-chloro-benzenesulfonyl)-methyl-amino]-2-methyl-propionamide], `CN(C(C)(C)C(=O)Nc1cc(C(C)(C)C)on1)S(=O)(=O)c1ccc(F)cc1` [Example 49, N-(5-tert-Butyl-isoxazol-3-yl)-2-[(4-fluoro-benzenesulfonyl)-methyl-amino]-2-methyl-propionamide] is 2.8-fold lower in EC50: 0.00036 µM for the first, 0.00013 µM for the second.

Same assay, conditions: CHO cells expressing human CB2R; concentration at which 50% of the forskolin-stimulated cAMP synthesis was inhibited; 100% defined by 1 uM CP55940; read-out: CB2 EC50

For `CC(C)(NC1CCCCC1)C(=O)Nc1ccc(C(F)(F)F)cn1` [Example 29, 2-Cyclohexylamino-2-methyl-N-(5-trifluoromethyl-pyridin-2-yl)-propionamide], the EC50 was 0.469 µM.
